From patent US7601868B2, “Amine derivative” (Takeda Pharmaceutical Company Limited, priority 2003, dated 2009)

Molecular target: T1, SLC-1 (Homo sapiens, UniProt Q99705)
T1 construct: expressed in transfected cells; host or cells: CHO cells (human SLC-1 clone 57 / rat SLC-1 clone 44), membrane fraction
Test: Antagonistic activity using GTPγS binding assay (SLC-1 expression CHO cell membrane fraction, MCH-stimulated)
Format: biochemical, human/rat
Details: [35S]-GTPγS binding to SLC-1 expression CHO cell membrane fraction in the presence of MCH, 25° C., 1 hr; read-out: Inhibitory activity (IC50: nM)
Procedure: Determination of Antagonistic Activity of Test Compound Using GTP γ S Binding Assay
Using human SLC-1 expression CHO cell clone 57 and rat SLC-1 expression CHO cell clone 44 described in WO01/82925, SLC-1 expression CHO cell membrane fractions were prepared by the following method. In phosphate buffered saline (pH 7.4) supplemented with 5 mM EDTA (ethylenediamine tetraacetic acid) were suspended human and rat SLC-1 expression CHO cells (1×10^8) and centrifuged. Homogenate buffer (10 ml, 10 mM NaHCO3, 5 mM EDTA, pH 7.5) was added to the pellets of the cells and, using Polytron Homogeniser, the mixture was homogenated. The supernatant obtained after centrifugation at 400×g for 15 min was further centrifuged at 100,000×g for 1 hr to give precipitate of the membrane fraction. […]
The antagonistic activity of the test compound was determined as follows. […] Liquid scintillator (50 ml) was added to the glass filter and the residual radioactivity was determined by a liquid scintillation counter. Binding inhibition (%)=(radioactivity upon addition of test compound and MCH−radioactivity upon addition of DMSO solution)/(radioactivity upon addition of MCH−radioactivity upon addition of DMSO solution)×100
From the binding inhibition (%), IC50 of the test compound was calculated.

T1 sequence (Q99705 whole entry, species assumed): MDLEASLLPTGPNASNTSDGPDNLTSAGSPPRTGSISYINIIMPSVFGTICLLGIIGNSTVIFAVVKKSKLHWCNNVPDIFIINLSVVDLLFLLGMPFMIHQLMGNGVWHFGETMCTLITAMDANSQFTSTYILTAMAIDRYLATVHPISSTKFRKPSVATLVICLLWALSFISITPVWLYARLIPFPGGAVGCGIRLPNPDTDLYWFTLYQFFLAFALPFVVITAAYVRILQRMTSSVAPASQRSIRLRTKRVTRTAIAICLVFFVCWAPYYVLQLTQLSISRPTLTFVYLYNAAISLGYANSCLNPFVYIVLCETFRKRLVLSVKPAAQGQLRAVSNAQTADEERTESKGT

IC50: 3 nM
Compound: CC(c1ccc(CCNC(=O)c2ccc(-c3ccc(Cl)cc3)cc2)cc1)N1CCCCCC1 (stereo not shown) [Example 67, N-(2-{4-[1-(1-azepanyl)ethyl]phenyl}ethyl)-4′-chloro[1,1′-biphenyl]-4-carboxamide]
